The source of these data is ChEMBL document CHEMBL6134890, “Terminally Symmetric β-Turn Peptides for Multidrug-Resistant Bacterial Infections” (J Med Chem, 2025).

Structures are written as SMILES. In brackets after ≈: the same amount, converted by molar mass. Activity calls are given as the source filed them.

Broadly, the MIC is the smallest concentration in the dilution series that meets the test's criterion for growth inhibition.

Data set [1] has as its system Escherichia coli. The data set can be described thus: Antimicrobial activity against Escherichia coli ATCC 25922 assessed as reduction in bacterial growth by broth dilution method. It counts as functional.
In data set [2] the test system is Staphylococcus aureus. Briefly: Drug resistance, ratio of MIC for Staphylococcus aureus ATCC 25923 after 15 passages exposure to MIC for Staphylococcus aureus ATCC 25923 after first exposure. It counts as functional.
The test system of data set [3] is Escherichia coli. Briefly: Antimicrobial activity against multi-drug resistant Escherichia coli assessed as reduction in bacterial growth by broth dilution method. The class given is functional. (Broth dilution looks for growth in wells or tubes with falling amounts of substance.)
The next data set relates to Klebsiella pneumoniae. Briefly: Antimicrobial activity against multi-drug resistant Klebsiella pneumoniae assessed as reduction in bacterial growth by broth dilution method. The class given is functional.
Another data set relates to Acinetobacter baumannii. The data set can be described thus: Antimicrobial activity against multi-drug resistant Acinetobacter baumannii assessed as reduction in bacterial growth by broth dilution method. The class given is functional.
Data set [4] has as its system Staphylococcus epidermidis. Briefly: Antimicrobial activity against multi-drug resistant Staphylococcus epidermidis assessed as reduction in bacterial growth by broth dilution method. The class given is functional.
The test system of data set [5] is Escherichia coli. Briefly: Drug resistance, ratio of MIC for Escherichia coli ATCC 25922 after 15 passages exposure to MIC for Escherichia coli ATCC 25922 after first exposure. It counts as functional.
In data set [6] the test system is Staphylococcus aureus. The data set can be described thus: Antimicrobial activity against Staphylococcus aureus ATCC 25923 assessed as reduction in bacterial growth by broth dilution method. It counts as functional.
Another data set concerns Enterococcus faecalis. Briefly: Antimicrobial activity against multi-drug resistant Enterococcus faecalis assessed as reduction in bacterial growth by broth dilution method. The class given is functional.
The test system of data set [7] is Staphylococcus aureus. Briefly: Antimicrobial activity against multi-drug resistant Staphylococcus aureus assessed as reduction in bacterial growth by broth dilution method. It counts as functional.
Data set [8] has as its system Escherichia coli. The data set can be described thus: Antibacterial activity against multidrug resistant Escherichia coli infected in male Kunming mouse model assessed as reduction in IL-6 expression by immunochemical analysis. It counts as functional, organism-based.
In data set [9] the test system is Escherichia coli. The data set can be described thus: Antibacterial activity against multidrug resistant Escherichia coli infected in male Kunming mouse model assessed as scabs thickening measured after 7 days by caliper method. The class given is functional, organism-based. Conditions: time 7.0 day.
The test system of data set [10] is Escherichia coli. The data set can be described thus: Antibacterial activity against multidrug resistant Escherichia coli infected in male Kunming mouse model assessed as reduction in epidermal thickening by H and E staining based analysis. The class given is functional, organism-based.
Data set [11] concerns Escherichia coli. The data set can be described thus: Antibacterial activity against multidrug resistant Escherichia coli infected in male Kunming mouse model assessed as reduction in tissue hemorrhage by H and E staining based analysis. It counts as functional, organism-based.
For data set [12], the system named is Escherichia coli. Briefly: Antibacterial activity against multidrug resistant Escherichia coli infected in male Kunming mouse model assessed as inflammatory cell infiltration by H and E staining based analysis. It counts as functional, organism-based.
Data set [13] relates to Escherichia coli. Briefly: Antibacterial activity against Escherichia coli ATCC 25922 infected in male Kunming mouse model assessed as reduction in bacterial load measured after 11 days. It counts as functional, organism-based. Conditions: time 11.0 day.
In data set [14] the test system is Escherichia coli. The data set can be described thus: Antibacterial activity against multidrug resistant Escherichia coli infected in male Kunming mouse model assessed as wound healing measured after 11 days by caliper method. The class given is functional, organism-based. Conditions: time 11.0 day.
Data set [15] concerns Escherichia coli. Briefly: Antibacterial activity against multidrug resistant Escherichia coli infected in male Kunming mouse model assessed as recovery of mouse weight measured after 11 days. It counts as functional, organism-based. Conditions: time 11.0 day.
Data set [16] concerns Escherichia coli. Briefly: Antibacterial activity against multidrug resistant Escherichia coli infected in male Kunming mouse model assessed as reduction in wound size measured after 3 to 5 days by caliper method. The class given is functional, organism-based. Conditions: time 3-5 day.
Data set [17] can be described thus: Hemolytic activity in human Red blood cell assessed as hemolysis incubated for 1 hrs by microplate reader based analysis. It counts as toxicity. The following applies: erythrocyte.
A further data set concerns HEK-293T. Briefly: Cytotoxicity against HEK293T cells at 256 uM measured after 24 hrs by CCK-8 method relative to control. It counts as toxicity, cell-based. Conditions: human. For orientation: Formazan colour is commonly taken as a measure of viable cells.
The next data set deals with L02. Briefly: Cytotoxicity against human LO2 cells at 256 uM measured after 24 hrs by CCK-8 method relative to control. It counts as toxicity, cell-based. The following applies: l02, 24 h.

On to `CC1(C)S[C@@H]2[C@H](NC(=O)[C@H](N)c3ccc(O)cc3)C(=O)N2[C@H]1C(=O)O` [AMOXICILLIN], for which the minimal inhibitory concentration (MIC) was 4 µM (≈ 1.46 µg/mL) in the data set on Escherichia coli [1]; over 256 µM in the data set with Escherichia coli [3]; over 256 µM with Klebsiella pneumoniae; 128 µM (≈ 46.8 µg/mL) in the data set with Acinetobacter baumannii; 128 µM (≈ 46.8 µg/mL) in data set [4]; 0.25 µM (≈ 0.0914 µg/mL) in the data set on Staphylococcus aureus [6]. The minimum inhibitory concentration (MIC) with Enterococcus faecalis and in the data set with Staphylococcus aureus [7] was 64 µM (≈ 23.4 µg/mL) throughout. In addition, the “fold change (FC)” value in the data set with Staphylococcus aureus [2] came to 64; in the data set on Escherichia coli [5] it was 8.
Take `C[C@H]1COc2c(N3CCN(C)CC3)c(F)cc3c(=O)c(C(=O)O)cn1c23` [LEVOFLOXACIN ANHYDROUS]: the MIC with Escherichia coli [1] is 2 µM (≈ 0.723 µg/mL); in the data set with Escherichia coli [3] it was 64 µM (≈ 23.1 µg/mL); in the data set with Klebsiella pneumoniae, 64 µM (≈ 23.1 µg/mL); with Acinetobacter baumannii it was over 256 µM; in data set [4] it was 8 µM (≈ 2.89 µg/mL); with Staphylococcus aureus [6] it was 0.25 µM (≈ 0.0903 µg/mL). The figures for the MIC in the data set with Enterococcus faecalis and in the data set on Staphylococcus aureus [7] were 32 µM (≈ 11.6 µg/mL) and 0.25 µM (≈ 0.0903 µg/mL), respectively. Further, the result in the data set with Escherichia coli [8], in the data set on Escherichia coli [10], in the data set on Escherichia coli [11], with Escherichia coli [12] and with Escherichia coli [14] was inactive. Moreover, the result in the data set with Escherichia coli [9], with Escherichia coli [13], in the data set on Escherichia coli [15] and in the data set with Escherichia coli [16] was Active.
For the compound `CO[C@H]1/C=C/O[C@@]2(C)Oc3c(C)c(O)c4c(O)c(c(/C=N/N5CCN(C)CC5)c(O)c4c3C2=O)NC(=O)/C(C)=C\C=C\[C@H](C)[C@H](O)[C@@H](C)[C@@H](O)[C@@H](C)[C@H](OC(C)=O)[C@@H]1C` [RIFAMPIN], the minimum inhibitory concentration (MIC) with Escherichia coli [1] was 8 µM (≈ 6.58 µg/mL); in the data set on Escherichia coli [3], 64 µM (≈ 52.7 µg/mL); in the data set on Klebsiella pneumoniae, 16 µM (≈ 13.2 µg/mL); in the data set on Acinetobacter baumannii, 16 µM (≈ 13.2 µg/mL); in data set [4], 2 µM (≈ 1.65 µg/mL); with Staphylococcus aureus [6], 0.5 µM (≈ 0.411 µg/mL). Also, the MIC was determined as 4 µM (≈ 3.29 µg/mL) in the data set on Enterococcus faecalis and 0.5 µM (≈ 0.411 µg/mL) with Staphylococcus aureus [7]. Also, the “fold change (FC)” value turned out to be 64 in the data set with Staphylococcus aureus [2] and 8 in the data set on Escherichia coli [5].
Turning to `CN[C@H](CC(C)C)C(=O)N[C@H]1C(=O)N[C@@H](CC(N)=O)C(=O)N[C@H]2C(=O)N[C@H]3C(=O)N[C@H](C(=O)N[C@H](C(=O)O)c4cc(O)cc(O)c4-c4cc3ccc4O)[C@H](O)c3ccc(c(Cl)c3)Oc3cc2cc(c3O[C@@H]2O[C@H](CO)[C@@H](O)[C@H](O)[C@H]2O[C@H]2C[C@](C)(N)[C@H](O)[C@H](C)O2)Oc2ccc(cc2Cl)[C@H]1O` [VANCOMYCIN], the MIC in the data set on Escherichia coli [1] was 256 µM (≈ 371 µg/mL); with Escherichia coli [3], over 256 µM; with Klebsiella pneumoniae, over 256 µM; in the data set with Acinetobacter baumannii, over 256 µM; in [4], 2 µM (≈ 2.9 µg/mL); with Staphylococcus aureus [6], 1 µM (≈ 1.45 µg/mL). In addition, the figures for the MIC in the data set with Enterococcus faecalis and with Staphylococcus aureus [7] were over 256 µM and 1 µM (≈ 1.45 µg/mL), respectively. Besides, the HC10 in data set [17] was over 256 µM. The Activity with HEK-293T and in the data set on L02 was 75% throughout.
